Entries after “also recorded” stand apart in the source; their conditions may differ.
How the values were obtained:
K562 cells [1] = test: K562 survival after storage at −80° C. for 3 days (Alamar Blue); assay type: cell-based; conditions: 1% peptoid in XT Formula, K562 stored at −80° C. for 3 days
Procedure: Several compounds were examined in XT Formula at 1% concentration (i.e., 1% peptoid polymer concentration) for their effects on the cryopreservation of cells. In particular, the effects of these compounds on the survival of K562 cells stored at −80° C. for 3 days were evaluated. An Alamar Blue assay was used to assess cell survival 1 day after stored cells were thawed. A 10% DMSO formula and DMEM cell media only were used as controls.

[2] = Vitrification screening assay (critical EG concentration); assay type: physicochemical; conditions: lowest EG for complete vitrification of 20 μL sample, 5 mg/mL peptoid in formulation, liquid nitrogen immersion
Procedure: As another means of increasing the throughput of library analysis, a vitrification screening assay was performed to evaluate anti-icing efficacy. For these experiments the compounds named “Compound 11,” “Compound 12,” “Compound 25,” Compound 26,” “Compound 27,” “Compound 28,” “Compound 60,” “Compound 62,” “Compound 63,” “Compound 64,” “Compound 69,” “Compound 70,” “Compound 71,” “Compound 72,” “Compound 73,” “Compound 74,” “Compound 75,” “Compound 76,” “Compound 77,” “Compound 78,” “Compound 81,” “Compound 82,” “Compound 83,” “Compound 84,” and “Compound 85” were tested.
For these experiments, 20 μL samples were flash frozen by liquid immersion in liquid nitrogen. Ethylene glycol (EG) concentrations between 5% and 25% (v/v) were used. A concentration of 5 mg/mL of peptoid polymer compounds were used in formulation. Table 12 lists the lowest concentration of EG necessary to bring about complete vitrification of a 20 μL sample with peptoid polymer in formulation, referred to as the “critical EG concentration.” A sample of formulation without the presence of a peptoid polymer was only able to bring about vitrification at 20% or more EG. Peptoid polymers of interest were able to bring about vitrification within formulas containing EG when the concentration of EG was lower than 20%.

K562 cells [3] = test: K562 viability after storage at −20° C. for 3 days (Alamar Blue); assay type: cell-based; conditions: 1% peptoid in XT Formula, K562 stored at −20° C. for 3 days, vs. XT Formula alone
Procedure: Several compounds were examined in XT Formula at 1% concentration (i.e., 1% peptoid polymer concentration) for their ability to increase the viability of cells subjected to super-cooled storage. XT Formula contains HTK buffer, among other components. In particular, the effects of these compounds on the viability of K562 cells stored at −20° C. for 3 days were evaluated. An Alamar Blue assay was used to assess cell viability 7 days after stored cells were thawed.

[4] = 160 mM ethylene glycol in MilliQ water, slow cooled, −20° C., one hour
Procedure: In this experiment, four water-based samples were prepared in capillary tubes containing MilliQ purified water. One sample contained only water, and another sample contained 160 mM ethylene glycol (EG). The other two samples each contained a peptoid polymer at 9 mM.
After sample preparation, all samples were slow cooled and incubated at −20° C. on a Peltier cooled plate. After one hour, samples were removed and immediately photographed using a digital camera attached to a 180× Stereo Zoom microscope (FIG. 2A).

[5] = Crystallographic x-ray diffraction (XRD) ice crystal formation assay; assay type: physicochemical
Procedure: In order to increase the throughput of library analysis, a crystallographic x-ray diffraction (XRD) technique was used to evaluate ice crystal formation. For these experiments, the compounds named “Compound 2,” “Compound 8,” “Compound 10,” “Compound 11,” “Compound 12,” “Compound 13,” and “Compound 58” were tested. Compound 58 is similar to Compound 12, except that an arginine amino acid has been appended to the N-terminal end.
For these experiments, EG concentrations between 15% and 30% (v/v) were used. Typically, EG, DMSO, and other cryoprotectants are used during XRD sample analysis at concentrations of 35-40% (v/v) to vitrify solutions and avoid diffraction interference from ice crystals. Concentrations of 1 and 5 mg/mL of the peptoid and peptoid-peptide compounds were used. FIGS. 3A, 3B, and 3C illustrate exemplary XRD data under conditions of complete vitrification, partial vitrification with the presence of cubic ice, and freezing ([…]), respectively. FIG. 3D provides ice rings scores for a variety of EG concentrations and two concentrations of Compounds 2, 8, and 12.
“IceRing1” and “IceRing2” refer to ice formation scores, which range between 0 (no ice formation) and 15 (large ice formation).

K562 cells [6] = test: Cell toxicity assay in K562 cell culture; assay type: cell-based; conditions: 1% concentration, 24 hours at 37° C. and 5% CO2
Procedure: The cytotoxicity of several compounds were evaluated using a typical cell toxicity assay in K562 cell culture. […] As a positive control, some cells were incubated without any peptoid polymer (DMEM). For a negative control, cells were incubated with DMSO (DMEM+10% DMSO).

HEK 293 cell line = test: Cell-based cytotoxicity assay (MTT); parameters: species or system human
Procedure: A Tecan Genesis Robotic Workstation was used to prepare solutions in 96- and 384-well plates. Solutions contained culture media, buffers, a cryoprotectant composition (Compound 12) or DMSO. Solutions were adjusted to the desired pH. Serial dilutions were performed to obtain solutions containing various concentrations of Compound 12 and DMSO. Control experiments were performed using only culture media.
For these experiments, cells were seeded at low density (i.e., 10% confluence), exposed to solutions containing Compound 12 or DMSO, and placed in a 37° C. incubator. The cells were allowed to grow until control cells that were treated only with empty vehicle approached 70% confluence (typically about 3 to 5 days). Assessment for compound cytotoxicity was via MTT assay.

[7] = Larger volume flash freeze / rewarm / −20° C. storage assay; assay type: physicochemical; conditions: 22.5% EG
Procedure: In order to test the usefulness of peptoid polymers at larger scales, experiments were performed using solution volumes that are similar to volumes used for standard egg and stem cell preservation. For these experiments, two samples, one containing 22.5% EG and buffer only, and another containing 22.5% EG and 5 mg/ml (0.5% w/v) of Compound 12 and buffer, were flash frozen in liquid nitrogen. […] The rewarming of the solutions in a 37° C. water bath led to an unexpected and beneficial result. The Compound 12 solution bypassed devitrification in less than 2 seconds upon rewarming (FIG. 6B, right), whereas chunks of ice were seen floating in the control sample (FIG. 6B, left) after 20 seconds. Condensation was seen on each of the tubes because the tubes were actually still much below room temperature.

HEK 293 cells = test: Cryopreservation assay, flash freezing in liquid nitrogen, Calcein AM viability; assay type: cell-based, human
Procedure: Initial cryopreservation assays were performed using very simple solutions, with and without the addition of Compound 12, in order to minimize confounding outside factors. For this first set of experiments, two sample solutions were prepared. The first sample solution contained simple buffer and ethylene glycol (EG) at a concentration of 22.5% (v/v), and the second sample solution contained simple buffer, EG (22.5% (v/v)), and 5 mg/mL (0.5% (w/v)) of Compound 12.
HEK 293 cells were grown until 70% confluent, then treated with trypsin to remove adhesion proteins and yield free floating cells. Cells were counted using a hemocytometer and sample cell concentrations were adjusted to final concentrations of 10,000 cells per microliter. Cells were then compressed into tight pellets by centrifugation, and each sample was subsequently mixed with 20 μL of one of the sample solutions. Samples were then flash frozen by immersion in liquid nitrogen, followed by rewarming in a 37° C. water bath. After the freeze-thaw process, cells were suspended in a 400× volume of culture media for recovery. The positive control sample was treated with culture media at 37° C. and not subjected to the freeze-thaw process. The negative control sample was treated with culture media only during the freeze-thaw process. After recovery, cells were stained with Calcein AM for 30 minutes and cell viability was measured using a fluorescence plate reader.
A second set of experiments was performed to evaluate the cryopreservation potential of a formulation that contained 5 mg/mL of Compound 12 plus a mixture of glycols, disaccharides, and a general buffer. Post-thaw survival following vitrification in liquid nitrogen was evaluated as described above.

Structure (SMILES)	cell survival 1 day after thaw (K562 cells [1])	Critical Ethylene Glycol Concentration [2]	cell viability 7 days after thaw (K562 cells [3])	ice crystal formation in capillary tube [4]	ice formation after flash freezing (XRD) ([5]; 5 mg/mL (0.5% (w/v)), EG 17.5% (v/v) in water, stream of liquid nitrogen vapor)	anti-icing effect in comparison to EG at the same molar concentration ([5]; 5 mg/mL with EG 17.5% (v/v)) [times]	reduction of necessary EG concentration while preventing ice formation (XRD ice ring scores) ([5]; 1 and 5 mg/mL peptoid, EG 15-30% (v/v))	cytotoxicity (cell persistence) (K562 cells [6])	toxicity by MTT assay (HEK 293 cell line; at 0.5% w/v, the concentration that prevents ice formation)	toxicity by MTT assay (HEK 293 cell line; at concentrations four times greater than 0.5% w/v)	toxicity by MTT assay (HEK 293 cell line; serial dilutions in culture media, 37° C., about 3 to 5 days)	vitrification on flash freezing in liquid nitrogen ([7]; 5 mg/ml (0.5% w/v) and buffer)	state after overnight in −20° C. freezer ([7]; 100 μL sample, 5 mg/ml)	post-thaw survival of the cells (HEK 293 cells; formulation: 5 mg/mL of Compound 12 plus a mixture of glycols, disaccharides, and a general buffer, vitrification in liquid nitrogen, 16 hours post-thaw) [%]	vitrification of cell sample during the freezing process (HEK 293 cells; simple buffer, EG 22.5% (v/v), 5 mg/mL)	cell survival after freeze-thaw (HEK 293 cells; simple buffer, EG 22.5% (v/v), 5 mg/mL vs. same solution without compound, viability 12 hours post-thaw)	devitrification of cell sample on rewarming (HEK 293 cells; simple buffer, EG 22.5% (v/v), 5 mg/mL vs. sample lacking compound)
CCC(C)NCC(=O)N(CC(=O)N(CCCN1CCCC1=O)CC(=O)N(CCCN1CCCC1=O)CC(=O)N(CC(=O)N(CC(=O)N(CCCN1CCCC1=O)CC(=O)N(CCCN1CCCC1=O)CC(=O)N(CC(=O)N(CC(N)=O)C(C)CC)C(C)CC)C(C)CC)C(C)CC)C(C)CC (stereo not drawn) [Compound 76, Nsb-Nsb-Nop-Nop-Nsb-Nsb-Nop-Nop-Nsb-Nsb]	produced the greatest improvement in cell survival	15.0% (ν/ν)	improved cell viability compared to XT Formula alone														
OCCO [EG, ethylene glycol]				significant ice crystal formation													
CCC(C)NCC(=O)N(CC(=O)N(CC(=O)N(CC(=O)N(CC(=O)N(CC(=O)N(CC(=O)N(CC(=O)N(CC(=O)N(CC(N)=O)C(C)CC)C(C)CC)CC(C)O)CC(C)O)C(C)CC)C(C)CC)CC(C)O)CC(C)O)C(C)CC (stereo not drawn) [Compound 12, Nsb-Nsb-Nhp-Nhp-Nsb-Nsb-Nhp-Nhp-Nsb-Nsb]		15.0% (ν/ν)	improved cell viability compared to XT Formula alone		ice-free after flash freezing	500	significantly reduced necessary EG concentrations while preventing ice formation	persisted about as well as cell incubated in cell culture media alone (DMEM)	did not show toxicity	did not show significant toxicity	did not significantly deviate from the that of culture media alone	complete vitrification with no ice formation; also recorded: vitrified	remained unfrozen	98	complete vitrification without ice formation	greatly improved cell survival	bypassed much more rapidly
